Test results reported in a melting point compilation (Tetko et al.; mined from patent text by program, amines drawn as free bases though some values may be those of a salt).

| melting point [°C] | SMILES |
| --- | --- |
| 193 to 194 | C=CCSC(C(=O)NC(C)=O)C(c1ccccc1)(c1ccccc1)c1ccccc1 (stereo not drawn) |
| 222 to 223 | NC(=O)c1ncn2c1[C@@H]1CCCN1C(=O)c1sccc1-2 |
| 187 to 189 | Clc1ccc(C(N=C2NCCN2)c2ccccc2)cc1 (stereo not drawn) |
| 95 to 97 | CCN1c2ncc(COc3cccc(OC)c3)cc2C(=O)N(C)c2ccc(Cl)nc21 |
| 221 to 222 | COc1ccc(C=C2NC(=O)N(C)C2=O)cc1 |
| 152 | CCOC(=O)C1=C(C)NC(C)=C(C(=O)OC(C)C)C1c1ccccc1C#N (stereo not drawn) |
| 194 | CCOC(=O)[C@H](Cc1ccc(NC(=O)c2c(Cl)cncc2Cl)cc1)NC1=CC(=O)C12CCCCC2 |
| 114 to 116 | N=C(NO)c1cccc(COC(=O)c2cc3ccccc3n2Cc2cccc(C(=N)NO)c2)c1 |
| 168 | O=C(O)CCCc1cc2nc(Cl)ccc2n1S(=O)(=O)c1ccc(OC(F)(F)F)cc1 |
| 161 to 163 | Cc1c(C)c(N2Cc3ccccc3C2)c(C)c2c1OC(C)(C)C2 |
| > 260 | COC(=O)CCCC(=O)NS(=O)(=O)c1ccc(N)cc1 |
| 124 to 127 | O=C(O)CCc1ccc(OCc2nc(-c3ccccc3)c(-c3ccccc3)o2)cc1 |
| 91 to 97 | COC(=O)C(O)C(CC(C)C)NC(=O)C(Cc1c[nH]cn1)NC(=O)C(CC(=O)N1CCCCC1)Cc1cccc2ccccc12 (mixture of isomers) |
| 119 to 123 | CN1C(=O)C(c2cccc(-c3cccnc3F)c2)(c2cc(C=NO)n(CCCF)c2)N=C1N (stereo not drawn) |
| 211 to 213 | Cc1c(Cl)nc2sc(S(=O)(=O)Cc3ccccc3)nn2c1=O |
| 262 to 265 | COc1ccccc1C(CO)c1c[nH]c2c(=O)[nH]c(N)nc12 (stereo not drawn) |
| 142 to 145 | Cc1c2c(cn1CC(N)=O)CN=C(c1ccccc1Cl)c1cc(Cl)ccc1-2 |
| 121 to 122 | CCOC(=O)C(C#N)CCCCCCc1ccc(Cl)cc1 (stereo not drawn) |
| 67 to 70 | CNS(=O)(=O)c1ccc(F)cc1 |
| 292 to 293 | CC(C)CNC(=O)C(C)NC(=O)C(C)NC(=O)C(C)NC(=O)CCCC(=O)O (stereo not drawn) |
| 95 to 98 | CN1CCC(c2cn(S(=O)(=O)c3c(F)cccc3F)c3ccc(OS(=O)(=O)c4c(F)cccc4F)cc23)CC1 |
| 102 to 104 | Nc1nccc(Oc2ccc3c(C(=O)Nc4cccc(C(F)(F)F)c4)cnn3c2)n1 |
| 28 to 29 | CCc1cc([N+](=O)[O-])c(NC(CC)CC)c([N+](=O)[O-])c1COC |
| 140 to 141 | CCOC(=O)c1c(C)nc2c3cccc(Cl)c3ccn12 |

| melting point [°C] | SMILES |
| --- | --- |
| 282 | CN1C(=O)C(N)=C(C(N)=S)C1=O |
| 124 to 142 | Cc1ccc(S(=O)(=O)C2CCCN(S(=O)(=O)c3ccc(C)cc3)C2)cc1 (stereo not drawn) |
| 132 to 134 | CCOC(=O)CCNC(=O)c1cn2nc(Cl)ccc2n1 |
| 134 | O=C(OCC1CC1)c1ccc(OCCC2CCN(c3ccc(Cl)nn3)CC2)cc1 |
| 120 to 124 | CS(=O)(=O)c1sc(S(N)(=O)=O)cc1CCO |
| 101 | O=C1CC(NC(=O)C2CCCN3C(=O)CCC(NC(=O)c4ccccc4)C(=O)N23)C(OCCc2ccccc2)O1 (stereo not drawn) |
| 128 to 129 | CN(CC(=O)NO)S(=O)(=O)Cc1cccc(C(F)(F)F)c1 |
| 83 to 86 | COC(=O)c1ccc(Cl)cn1 |
| 139 to 141 | CC(C)(CCn1cnnc1)NCC(O)c1ccc(OCc2ccccc2)c(CO)c1 (stereo not drawn) |
| 166 to 167 | Cc1nn(CC(C)(C)O)c(-c2ccc(F)cc2)c1-c1ccc2c(c1)NC(=O)CO2 |
| 77 to 79 | C=CCc1cc(OC)c(OC)cc1CC(C#N)=COC |
| 92 to 94 | CC(C)n1nc(-c2ccc(OCCCCl)cc2)c2sccc2c1=O |
| 246 | Oc1c(Cl)cc(Cn2c(S)nc3ccccc32)cc1Cl |
| 151 to 154 | CCCO[C@@H](Cc1ccc(OCCc2nc(-c3ccc(-c4ccccc4)cc3)oc2C)c2ccccc12)C(=O)O |
| 135 to 137 | COC(=O)c1c(C)c(-c2cc(OC)c(Cl)cc2F)nn1C |
| 206 to 207 | Cc1ccc(-c2c(-c3ccc(S(C)(=O)=O)cc3)[nH]c3ccccc23)cc1C |
| 165 | CCOC(=O)C1=C(N)NC2=C(C(=O)CCC2)C1c1ccccc1C#N (stereo not drawn) |
| 81 to 82 | CCOC(=O)c1conc1-c1ccc(-c2ccccc2)cc1 |
| 45 | Cc1ncn(C)c1[N+](=O)[O-] |
| 144 to 147 | CN(CCOc1ccc(CC(Sc2ccccc2)C(=O)O)cc1)c1nc2ccccc2o1 (stereo not drawn) |
| 110 | CC(=O)Nc1c(C)cccc1CCC(=O)O |
| 116 to 117 | Cc1cc(-c2c(-c3ccc(F)cc3)ncn2CCCN2CCOCC2)ccn1 |
| 121 to 122 | COc1cc(C(C)(C)C)c(O)c(C(=O)Nc2ccc(S(=O)(=O)C(F)(F)F)cc2Cl)c1C |
| 185 to 190 | CN(C)CCOc1cnc(Nc2cc(-c3cccc(-n4ncc5cc(C(C)(C)C)cc(F)c5c4=O)c3CO)nn(C)c2=O)cn1 |

| melting point [°C] | SMILES |
| --- | --- |
| 176 to 178 | O=C(O)c1cc(SC(F)(F)F)c(-c2ccc(Cl)cc2)[nH]1 |
| 51 to 54 | COC(=O)C(CC1CCCC1)c1ccc(I)cc1 (stereo not drawn) |
| 73 to 75 | COc1ccc(CCOc2ccc(NC(=O)c3cc(F)cc(N4CCOCC4)c3)c3ccccc23)cc1OC |
| 183 | CCCC(=O)N[C@H]1CC[C@H](CCN2CCN(c3nccc4c3OCC4)CC2)CC1 |
| 200 to 201 | COc1cc(OC)cc(N2CCN(C(=O)Nc3cc4ccccc4nc3OC)CC2)c1 |
| 144 to 146 | O[C@H]1CC[C@H](CN2CCC(=C3c4ccc(F)cc4Sc4ccc(C(F)(F)F)cc43)CC2)CC1 |
| 150 to 152 | CCCCCCN1C(=O)C(=O)c2cc(SCCCc3ccc(C(=O)O)cc3)ccc21 |
| 167 to 170 | Cc1nc(N)sc1C(=O)OC(C)(C)C |
| 178 to 180 | Nc1sccc1C(=O)c1ccc(Cl)cc1 |
| 77 to 79 | CN(C)CCCCNC(=O)Cn1ncc(-c2ccccc2)c1-c1ccccc1 |
| 159 to 160 | COc1ccc(C(=O)CC(C)(C)C(=O)O)c2c1OC(C)(C)C2 |
| 88.3 | O=C1N(c2cc(Cl)cc(Cl)c2)C(=O)[C@]2(Cc3ccc(Br)cc3)C[C@@H](O)CN12 |
| 279 to 280 | CN(c1ccc(Cl)cc1)c1nc(=O)c2ccc(-c3ccccc3)nc2s1 |
| 72 to 74 | N#C/C=C\c1ccccc1C(=O)Cl |
| 148 to 150 | C=C(C)CN(CC)c1nc(C)[nH]c2cc(-c3ccccc3)nc1-2 |
| 154 | COc1ccc(OC)c(Nc2nc(-c3cccc([N+](=O)[O-])c3)cs2)c1 |
| 196 to 198 | COC(=O)c1cc2c3cc(C(C)=O)ccc3n(C)c2s1 |
| 149 to 150 | CN(C)S(=O)(=O)c1cc2c(c(Cl)c1Cl)OC(C(=O)OCC(=O)O)C2 (stereo not drawn) |
| 260 to 262 | O=C(NCCc1ccccc1)c1c(Cl)ccc2nc(N3CCC(C(=O)O)CC3)ccc12 |
| 111 to 113 | O=[N+]([O-])c1ccc(-c2ccc(C(O)CCl)o2)cc1 (stereo not drawn) |
| 230 to 235 | COc1ccccc1NC(=O)Nc1nc(Oc2ccc3ccccc3c2)nc(N2Cc3ccccc3CC2C(=O)O)n1 (stereo not drawn) |
| 115 to 117 | CN1N=C2C(=Cc3ccccc3)CNCC2C1c1ccccc1 (stereo not drawn) |
| 75 | O=Cc1ccc(CO)cn1 |
| 115 to 119 | CC(=O)OCCCNc1cc(C)nc2cn[nH]c12 |

| melting point [°C] | SMILES |
| --- | --- |
| 42 to 44 | CCc1cc2ccccn2c1 |
| 78 to 79 | N#CC(C#N)=C1N(CCCCN2CCCCC2)CCN1CCN1CCCCC1 |
| 58 to 60 | O=S(=O)(Cl)CCCCCc1ccc(OCc2ccccc2)cc1 |
| 229 to 231 | COCc1nnc(-c2cccnc2)n1-c1c(Cl)c(C)cc2[nH]c(=O)c(=O)[nH]c12 |
| 167 to 168 | COc1ccccc1N1CCN(CCn2c(=O)c3cscc3n(C)c2=O)CC1 |
| 214 to 218 | Cc1cccc(-c2nc(N)sc2-c2ccnc(F)c2)c1 |
| 207 to 212 | Cc1cc(C2N(c3ccccc3)CCN2c2ccccc2)c(O)cc1N(C)C |
| 140 to 142 | O=C1CN(c2nccc(Oc3ccc(NC(=O)c4cc(F)cc(N5CCCCC5)c4)c4ccccc34)n2)CCN1 |
| 198 | O=C(c1ccc2c(c1)OCCO2)c1ccc2nc(Cl)nc(-c3cccc(Cl)c3)c2c1 |
| 83.5 to 84.5 | CCOC(=O)c1cnn(-c2cc(C)cc(C)c2)c1C#N |
| 270 to 273 | COc1ccc2c(=O)c(-c3nnnn3C)cn(C)c2c1 |
| 84 to 86 | CCCCCCCCCCOC(=O)OC(C)OC1=C(C(=O)Nc2ccccn2)N(C)S(=O)(=O)c2ccccc21 (stereo not drawn) |
| 208 to 210 | CCCNC(=O)N1CCC(O)(Cc2c3c(nn2CC)c(N)nc2ccccc23)CC1 |
| 160 to 161 | O=C(Oc1ccccc1)N1CCC(S(=O)(=O)c2ccccc2F)CC1 |
| 160 to 162 | CC(C)Oc1cc(-n2c(=O)[nH]c(C(F)(F)C(F)(F)F)c(F)c2=O)c(F)cc1Cl |
| 106 to 107 | CN(CCN1CCOCC1)c1noc2cc(OC(=O)NCc3ccccc3)ccc12 |
| > 400 | CC(=O)NC1CCC(NC(=O)Nc2ccc(C(F)(F)F)cc2)CC1 (stereo not drawn) |
| 262 | O=c1[nH]c2cc(Cl)ccc2cc1-c1ccc(O)cc1 |
| 135 to 136 | COC(=O)c1cccc(Cl)c1NC(C)=O |
| 151 to 153 | O=C(O)CCc1ccc(C(=O)CCl)cc1 |
| 264 to 267 | Cn1cc(-c2cc3cccnc3[nH]2)c2ccc(C(=O)NCCO)cc21 |

| SMILES | melting point [°C] |
| --- | --- |
| N#Cc1ccc(N2CCC(CC(=O)O)CC2)c2ccccc12 | 195 to 196 |
| COCO[C@@H]1[C@H]2OC(C)(C)O[C@H]2[C@H](O[C@H]2C[C@H]3OC(C)(C)OC[C@]34C3C(CC[C@]4(O)C2)[C@@]2(O)CC[C@H](CO)[C@@]2(C)C[C@H]3OCOC)O[C@H]1C (stereo partly drawn) | 126 to 129 |
| CN(C)C1(c2ccccc2)CCC(=CC(=O)NCCCCCc2c[nH]c3ccccc23)CC1 (stereo not drawn) | 68 to 72 |
| COc1ccc(-c2c(C#N)nn(-c3c(Cl)cc(C(F)(F)F)cc3Cl)c2N)cc1OC | 250 |
| CC(C)(C)OC(=O)N[C@H](Cc1ccccc1)C(=O)N1CCC[C@H]1C(=O)NC(Cc1ccc(C#N)cc1)P(=O)(Oc1ccccc1)Oc1ccccc1 (stereo partly drawn) | 85 to 90 |
